Test results as given in patent US10752624B2, “Kinase inhibitors” (Origenis GmbH, priority 2012, dated 2020).

Biological target: LRRK2 (Homo sapiens, UniProt Q5S007)
Experiment: LRRK2-LRRK2 G2019S-Assay (LanthaScreen Eu Kinase Binding Assay)
Settings: 5 nM LRRK2, 10 nM tracer 236, 2 nM EU-Anti-GST antibody, 1 h at RT; read-out: LRRK2 Activities: IC50
In short: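 In a TR-FRET tracer displacement assay, LRRK2 or its mutants at 5 nM were mixed with 2 nM Eu-anti-GST antibody and 10 nM tracer 236 in kinase buffer A for 1 h at RT. The 665/615 nm emission ratio was plotted against inhibitor concentration, and IC50 came from a variable-slope sigmoidal fit.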

Sequence of LRRK2 (Q5S007 970-2527 limits assumed): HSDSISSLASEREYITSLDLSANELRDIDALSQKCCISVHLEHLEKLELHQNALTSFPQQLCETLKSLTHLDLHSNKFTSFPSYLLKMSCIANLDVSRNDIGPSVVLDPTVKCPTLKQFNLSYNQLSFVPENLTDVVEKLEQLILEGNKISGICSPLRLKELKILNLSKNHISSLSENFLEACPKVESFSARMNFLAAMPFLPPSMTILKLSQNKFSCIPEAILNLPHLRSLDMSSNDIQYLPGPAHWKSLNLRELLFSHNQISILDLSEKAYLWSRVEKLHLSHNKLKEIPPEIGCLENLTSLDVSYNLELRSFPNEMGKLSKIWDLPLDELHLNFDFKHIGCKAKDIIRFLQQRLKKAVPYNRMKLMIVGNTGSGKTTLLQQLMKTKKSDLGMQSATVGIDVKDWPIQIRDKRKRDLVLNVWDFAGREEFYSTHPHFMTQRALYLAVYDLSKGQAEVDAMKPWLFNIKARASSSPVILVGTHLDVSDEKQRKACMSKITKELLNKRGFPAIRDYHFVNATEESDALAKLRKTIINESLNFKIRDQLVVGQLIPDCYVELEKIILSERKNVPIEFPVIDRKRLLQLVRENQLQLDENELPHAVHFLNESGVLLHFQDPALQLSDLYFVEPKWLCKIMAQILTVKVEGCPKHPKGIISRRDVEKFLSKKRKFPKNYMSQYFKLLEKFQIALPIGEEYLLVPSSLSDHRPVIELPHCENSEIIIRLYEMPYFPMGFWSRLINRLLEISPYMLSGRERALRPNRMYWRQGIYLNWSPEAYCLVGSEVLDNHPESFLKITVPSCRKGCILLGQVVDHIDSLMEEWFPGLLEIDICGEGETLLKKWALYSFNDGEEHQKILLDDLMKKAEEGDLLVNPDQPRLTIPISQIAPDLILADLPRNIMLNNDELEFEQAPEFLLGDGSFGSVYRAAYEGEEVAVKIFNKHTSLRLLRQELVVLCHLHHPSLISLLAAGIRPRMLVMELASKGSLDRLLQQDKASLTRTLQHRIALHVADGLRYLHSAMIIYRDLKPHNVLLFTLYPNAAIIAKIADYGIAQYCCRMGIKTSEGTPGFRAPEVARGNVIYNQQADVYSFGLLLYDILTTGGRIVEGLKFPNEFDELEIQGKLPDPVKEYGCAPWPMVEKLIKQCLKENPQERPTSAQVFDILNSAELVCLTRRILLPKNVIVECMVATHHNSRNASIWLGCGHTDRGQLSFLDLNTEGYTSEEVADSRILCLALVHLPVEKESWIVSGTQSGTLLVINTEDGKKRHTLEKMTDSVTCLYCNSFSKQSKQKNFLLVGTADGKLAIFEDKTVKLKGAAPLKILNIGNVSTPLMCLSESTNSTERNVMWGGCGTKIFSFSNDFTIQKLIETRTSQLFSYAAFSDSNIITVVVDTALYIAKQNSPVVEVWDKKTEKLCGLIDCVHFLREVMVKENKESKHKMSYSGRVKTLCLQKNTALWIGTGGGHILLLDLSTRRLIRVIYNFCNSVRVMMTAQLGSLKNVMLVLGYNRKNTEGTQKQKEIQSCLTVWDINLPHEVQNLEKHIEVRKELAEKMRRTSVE

IC50, 100 to 1000 nM:
CC(C)n1cc(Nc2nc3ccc(S(C)(=O)=O)cc3c3cn[nH]c23)c(C(N)=O)n1 [Example 250, 1-isopropyl-4-((8-(methylsulfonyl)-3H-pyrazolo[3,4-c]quinolin-4-yl)amino)-1H-pyrazole-3-carboxamide]
CC(C)n1ncc(Nc2nc3ccc(S(C)(=O)=O)cc3c3cn[nH]c23)c1C(N)=O [Example 251, 1-isopropyl-4-((8-(methylsulfonyl)-3H-pyrazolo[3,4-c]quinolin-4-yl)amino)-1H-pyrazole-5-carboxamide]
COCCn1cc(Nc2nc3cccc(OC)c3c3cn[nH]c23)c(C(F)(F)F)n1 [Example 267, 9-methoxy-N-(1-(2-methoxyethyl)-3-(trifluoromethyl)-1H-pyrazol-4-yl)-3H-pyrazolo[3,4-c]quinolin-4-amine]
COCCn1ncc(Nc2nc3cccc(OC)c3c3cn[nH]c23)c1C(F)(F)F [Example 268, 9-methoxy-N-(1-(2-methoxyethyl)-5-(trifluoromethyl)-1H-pyrazol-4-yl)-3H-pyrazolo[3,4-c]quinolin-4-amine]
COCCn1ncc(Nc2nc3ccc(S(C)(=O)=O)cc3c3cn[nH]c23)c1C [Example 282, N-(1-(2-methoxyethyl)-5-methyl-1H-pyrazol-4-yl)-8-(methylsulfonyl)-3H-pyrazolo[3,4-c]quinolin-4-amine]
COc1cccc2c1nc(Nc1ccc(N3CCOCC3)cc1)c1[nH]ncc12 [Example 304, 6-methoxy-N-(4-morpholinophenyl)-3H-pyrazolo[3,4-c]quinolin-4-amine]
COCCCn1cc(Nc2nc3c(OC)cccc3c3cn[nH]c23)cn1 [Example 306, 6-methoxy-N-(1-(3-methoxypropyl)-1H-pyrazol-4-yl)-3H-pyrazolo[3,4-c]quinolin-4-amine]
CCN1C(=O)COc2ccc(Nc3nc4ccc(OC)cc4c4c[nH]nc34)cc21 [Example 318, 4-ethyl-6-((8-methoxy-2H-pyrazolo[3,4-c]quinolin-4-yl)amino)-2H-benzo[b][1,4]oxazin-3(4H)-one]
COc1ccc2nc(Nc3cnn(C(C)c4ccccc4)c3)c3n[nH]cc3c2c1 (stereo not shown) [Example 320, 8-methoxy-N-(1-(1-phenylethyl)-1H-pyrazol-4-yl)-2H-pyrazolo[3,4-c]quinolin-4-amine]
COc1ccc2nc(Nc3ccc4c(c3)N(C)C(=O)CO4)c3n[nH]cc3c2c1 [Example 322, 6-((8-methoxy-2H-pyrazolo[3,4-c]quinolin-4-yl)amino)-4-methyl-2H-benzo[b][1,4]oxazin-3(4H)-one]
Cc1nn(CC(C)(C)O)cc1Nc1nc2ccc(S(C)(=O)=O)cc2c2c[nH]nc12 [Example 325, 2-methyl-1-(3-methyl-4-((8-(methylsulfonyl)-2H-pyrazolo[3,4-c]quinolin-4-yl)amino)-1H-pyrazol-1-yl)propan-2-ol]
Cc1c(Nc2nc3ccc(S(C)(=O)=O)cc3c3c[nH]nc23)cnn1CC(C)(C)O [Example 326, 2-methyl-1-(5-methyl-4-((8-(methylsulfonyl)-2H-pyrazolo[3,4-c]quinolin-4-yl)amino)-1H-pyrazol-1-yl)propan-2-ol]
CS(=O)(=O)c1ccc2nc(Nc3cc(C(=O)O)n[nH]3)c3n[nH]cc3c2c1 [Example 335, 5-((8-(methylsulfonyl)-2H-pyrazolo[3,4-c]quinolin-4-yl)amino)-1H-pyrazole-3-carboxylic acid]
CS(=O)(=O)c1ccc2nc(Nc3ccccc3O)c3n[nH]cc3c2c1 [Example 336, 2-((8-(methylsulfonyl)-2H-pyrazolo[3,4-c]quinolin-4-yl)amino)phenol]
C[C@H]1CCCN1c1cccc(Nc2nc3ccc(S(C)(=O)=O)cc3c3c[nH]nc23)c1 [Example 337, (S)—N-(3-(2-methylpyrrolidin-1-yl)phenyl)-8-(methylsulfonyl)-2H-pyrazolo[3,4-c]quinolin-4-amine]
COc1ccc2nc(Nc3cnn(C(C)C(=O)O)c3)c3n[nH]cc3c2c1 (stereo not shown) [Example 347, 2-(4-((8-methoxy-2H-pyrazolo[3,4-c]quinolin-4-yl)amino)-1H-pyrazol-1-yl)propanoic acid]
CS(=O)(=O)c1ccc2nc(Nc3ccc4c(c3)N(C(=O)C3CC3)CCC4)c3n[nH]cc3c2c1 [Example 350, cyclopropyl(7-((8-(methylsulfonyl)-2H-pyrazolo[3,4-c]quinolin-4-yl)amino)-3,4-dihydroquinolin-1(2H)-yl)methanone]

IC50, < 10 nM:
COc1cccc2nc(Nc3cnn(C4CCNCC4)c3Cl)c3[nH]ncc3c12 [Example 254, N-(5-chloro-1-(piperidin-4-yl)-1H-pyrazol-4-yl)-9-methoxy-3H-pyrazolo[3,4-c]quinolin-4-amine]
COc1cccc2nc(Nc3cnn(C4CCOCC4)c3Cl)c3[nH]ncc3c12 [Example 255, N-(5-chloro-1-(tetrahydro-2H-pyran-4-yl)-1H-pyrazol-4-yl)-9-methoxy-3H-pyrazolo[3,4-c]quinolin-4-amine]
CS(=O)(=O)c1ccc2nc(Nc3cnn(C4CCOCC4)c3Cl)c3[nH]ncc3c2c1 [Example 265, N-(5-chloro-1-(tetrahydro-2H-pyran-4-yl)-1H-pyrazol-4-yl)-8-(methylsulfonyl)-3H-pyrazolo[3,4-c]quinolin-4-amine]
Cc1nn(CCF)cc1Nc1nc2ccc(S(C)(=O)=O)cc2c2cn[nH]c12 [Example 269, N-(1-(2-fluoroethyl)-3-methyl-1H-pyrazol-4-yl)-8-(methylsulfonyl)-3H-pyrazolo[3,4-c]quinolin-4-amine]
Cc1c(Nc2nc3ccc(S(C)(=O)=O)cc3c3cn[nH]c23)cnn1CCF [Example 270, N-(1-(2-fluoroethyl)-5-methyl-1H-pyrazol-4-yl)-8-(methylsulfonyl)-3H-pyrazolo[3,4-c]quinolin-4-amine]

IC50, 10 to 100 nM:
COc1cccc2nc(Nc3cnn(C(C)C)c3C(N)=O)c3[nH]ncc3c12 [Example 266, 1-isopropyl-4-((9-methoxy-3H-pyrazolo[3,4-c]quinolin-4-yl)amino)-1H-pyrazole-5-carboxamide]
COCCn1cc(Nc2nc3ccc(S(C)(=O)=O)cc3c3cn[nH]c23)c(C(F)(F)F)n1 [Example 271, N-(1-(2-methoxyethyl)-3-(trifluoromethyl)-1H-pyrazol-4-yl)-8-(methylsulfonyl)-3H-pyrazolo[3,4-c]quinolin-4-amine]
COCCn1ncc(Nc2nc3ccc(S(C)(=O)=O)cc3c3cn[nH]c23)c1C(F)(F)F [Example 272, N-(1-(2-methoxyethyl)-5-(trifluoromethyl)-1H-pyrazol-4-yl)-8-(methylsulfonyl)-3H-pyrazolo[3,4-c]quinolin-4-amine]
COCCn1cc(Nc2nc3ccc(S(C)(=O)=O)cc3c3cn[nH]c23)c(C#N)n1 [Example 274, 1-(2-methoxyethyl)-4-((8-(methylsulfonyl)-3H-pyrazolo[3,4-c]quinolin-4-yl)amino)-1H-pyrazole-3-carbonitrile]
COCCn1ncc(Nc2nc3cccc(OC)c3c3cn[nH]c23)c1Br [Example 275, N-(5-bromo-1-(2-methoxyethyl)-1H-pyrazol-4-yl)-9-methoxy-3H-pyrazolo[3,4-c]quinolin-4-amine]
COCCn1ncc(Nc2nc3cccc(OC)c3c3cn[nH]c23)c1F [Example 276, N-(5-fluoro-1-(2-methoxyethyl)-1H-pyrazol-4-yl)-9-methoxy-3H-pyrazolo[3,4-c]quinolin-4-amine]
COCCn1ncc(Nc2nc3ccc(S(C)(=O)=O)cc3c3cn[nH]c23)c1Br [Example 279, N-(5-bromo-1-(2-methoxyethyl)-1H-pyrazol-4-yl)-8-(methylsulfonyl)-3H-pyrazolo[3,4-c]quinolin-4-amine]
Cc1c(Nc2nc3ccc(S(C)(=O)=O)cc3c3cn[nH]c23)cnn1C1CCOCC1 [Example 281, N-(5-methyl-1-(tetrahydro-2H-pyran-4-yl)-1H-pyrazol-4-yl)-8-(methylsulfonyl)-3H-pyrazolo[3,4-c]quinolin-4-amine]
COc1ccc2nc(Nc3ccc(N4CCC(O)CC4)cc3)c3[nH]ncc3c2c1 [Example 296, 1-(4-((8-methoxy-3H-pyrazolo[3,4-c]quinolin-4-yl)amino)phenyl)piperidin-4-ol]
COc1cccc2c1nc(Nc1cnn(C(C)C)c1)c1[nH]ncc12 [Example 305, N-(1-isopropyl-1H-pyrazol-4-yl)-6-methoxy-3H-pyrazolo[3,4-c]quinolin-4-amine]
COc1cc(OC)c2nc(Nc3ccc(C(=O)N4CCOCC4)cc3)c3[nH]ncc3c2c1 [Example 308, (4-((6,8-dimethoxy-3H-pyrazolo[3,4-c]quinolin-4-yl)amino)phenyl)(morpholino)methanone]
CC(C)(O)Cn1cc(Nc2nc3ccc(S(C)(=O)=O)cc3c3cn[nH]c23)cn1 [Example 317, 2-methyl-1-(4-((8-(methylsulfonyl)-3H-pyrazolo[3,4-c]quinolin-4-yl)amino)-1H-pyrazol-1-yl)propan-2-ol]
COc1ccc2nc(Nc3cnn(-c4ccccn4)c3)c3n[nH]cc3c2c1 [Example 319, 8-methoxy-N-(1-(pyridin-2-yl)-1H-pyrazol-4-yl)-2H-pyrazolo[3,4-c]quinolin-4-amine]
CCN1C(=O)COc2ccc(Nc3nc4ccc(S(C)(=O)=O)cc4c4c[nH]nc34)cc21 [Example 342, 4-ethyl-6-((8-(methylsulfonyl)-2H-pyrazolo[3,4-c]quinolin-4-yl)amino)-2H-benzo[b][1,4]oxazin-3(4H)-one]
CS(=O)(=O)c1ccc2nc(Nc3ccc4c(c3)NC(=O)CO4)c3n[nH]cc3c2c1 [Example 343, 6-((8-(methylsulfonyl)-2H-pyrazolo[3,4-c]quinolin-4-yl)amino)-2H-benzo[b][1,4]oxazin-3(4H)-one]
